These results are taken from patent publication US20160378912A1, “STRUCTURE-BASED MODELING AND TARGET-SELECTIVITY PREDICTION” (EPIGENETX, LLC, priority 2013, published 2016).

Molecules are shown by their SMILES.

The test system of one assay is HDAC isoforms. Briefly: HDAC inhibition profiled over several HDAC isoforms (experimental). The assay is classed as biochemical, human.
The next assay relates to HDLP. Particulars: CTS; cited from earlier work.
A further assay addresses HIV-RT Y188L (Human immunodeficiency virus type 1 group M subtype B, UniProt P04585, Y775L). Particulars: Rotili et al. 2012; cited from earlier work.
The next assay addresses HIV-RT L100I (Human immunodeficiency virus type 1 group M subtype B, UniProt P04585, L687I). Conditions: Rotili et al. 2012; cited from earlier work.
A further assay addresses HIV-RT K103N (Human immunodeficiency virus type 1 group M subtype B, UniProt P04585, K690N). Particulars: Rotili et al. 2012; cited from earlier work.
For the next assay, the target named is HIV-RT V106A (Human immunodeficiency virus type 1 group M subtype B, UniProt P04585, V693A). Conditions: Rotili et al. 2012; cited from earlier work.
Another assay addresses HIV-RT Y181I (Human immunodeficiency virus type 1 group M subtype B, UniProt P04585, Y768I). Conditions: Rotili et al. 2012; cited from earlier work.
A further assay addresses HIV-RT WT (Human immunodeficiency virus type 1 group M subtype B, UniProt P04585). Particulars: Rotili et al. 2012; cited from earlier work.
The next assay addresses HDAC9 (Homo sapiens, UniProt Q9UKV0). Particulars: MTS inhibitors; cited from earlier work.
The target of another assay is T1, HDAC7 (Homo sapiens, UniProt Q8WUI4).
T1 sequence (Q8WUI4 1-952): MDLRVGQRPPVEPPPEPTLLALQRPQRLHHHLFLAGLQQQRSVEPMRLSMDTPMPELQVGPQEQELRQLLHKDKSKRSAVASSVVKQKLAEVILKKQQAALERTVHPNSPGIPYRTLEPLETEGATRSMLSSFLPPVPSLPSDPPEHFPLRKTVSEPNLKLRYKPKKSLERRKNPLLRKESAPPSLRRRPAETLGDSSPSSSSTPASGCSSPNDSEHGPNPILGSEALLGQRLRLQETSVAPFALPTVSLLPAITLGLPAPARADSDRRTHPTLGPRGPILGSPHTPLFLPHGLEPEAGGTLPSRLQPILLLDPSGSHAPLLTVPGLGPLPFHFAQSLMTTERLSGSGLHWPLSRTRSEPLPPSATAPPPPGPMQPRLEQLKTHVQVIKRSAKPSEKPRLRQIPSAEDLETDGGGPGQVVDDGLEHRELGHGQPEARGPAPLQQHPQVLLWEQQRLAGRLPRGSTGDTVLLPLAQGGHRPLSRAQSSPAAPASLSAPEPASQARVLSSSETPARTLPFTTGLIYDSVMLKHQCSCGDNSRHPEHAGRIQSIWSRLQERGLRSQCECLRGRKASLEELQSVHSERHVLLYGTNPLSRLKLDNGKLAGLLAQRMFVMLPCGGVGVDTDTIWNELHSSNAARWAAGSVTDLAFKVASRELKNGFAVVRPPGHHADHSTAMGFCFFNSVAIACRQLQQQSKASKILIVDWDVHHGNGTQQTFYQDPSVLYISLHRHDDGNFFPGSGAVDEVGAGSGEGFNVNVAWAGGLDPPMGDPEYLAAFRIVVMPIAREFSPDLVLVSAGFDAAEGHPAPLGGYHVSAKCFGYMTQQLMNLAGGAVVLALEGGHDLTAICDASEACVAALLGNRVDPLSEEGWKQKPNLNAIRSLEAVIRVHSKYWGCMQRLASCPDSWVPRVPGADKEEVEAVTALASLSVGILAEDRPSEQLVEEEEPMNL
Conditions: MTS inhibitors; cited from earlier work.

For the next assay, the target named is HDAC5 (Homo sapiens, UniProt Q9UQL6). Conditions: MTS inhibitors, HDAC5; cited from earlier work.
Chain of HDAC5 (Q9UQL6 whole entry): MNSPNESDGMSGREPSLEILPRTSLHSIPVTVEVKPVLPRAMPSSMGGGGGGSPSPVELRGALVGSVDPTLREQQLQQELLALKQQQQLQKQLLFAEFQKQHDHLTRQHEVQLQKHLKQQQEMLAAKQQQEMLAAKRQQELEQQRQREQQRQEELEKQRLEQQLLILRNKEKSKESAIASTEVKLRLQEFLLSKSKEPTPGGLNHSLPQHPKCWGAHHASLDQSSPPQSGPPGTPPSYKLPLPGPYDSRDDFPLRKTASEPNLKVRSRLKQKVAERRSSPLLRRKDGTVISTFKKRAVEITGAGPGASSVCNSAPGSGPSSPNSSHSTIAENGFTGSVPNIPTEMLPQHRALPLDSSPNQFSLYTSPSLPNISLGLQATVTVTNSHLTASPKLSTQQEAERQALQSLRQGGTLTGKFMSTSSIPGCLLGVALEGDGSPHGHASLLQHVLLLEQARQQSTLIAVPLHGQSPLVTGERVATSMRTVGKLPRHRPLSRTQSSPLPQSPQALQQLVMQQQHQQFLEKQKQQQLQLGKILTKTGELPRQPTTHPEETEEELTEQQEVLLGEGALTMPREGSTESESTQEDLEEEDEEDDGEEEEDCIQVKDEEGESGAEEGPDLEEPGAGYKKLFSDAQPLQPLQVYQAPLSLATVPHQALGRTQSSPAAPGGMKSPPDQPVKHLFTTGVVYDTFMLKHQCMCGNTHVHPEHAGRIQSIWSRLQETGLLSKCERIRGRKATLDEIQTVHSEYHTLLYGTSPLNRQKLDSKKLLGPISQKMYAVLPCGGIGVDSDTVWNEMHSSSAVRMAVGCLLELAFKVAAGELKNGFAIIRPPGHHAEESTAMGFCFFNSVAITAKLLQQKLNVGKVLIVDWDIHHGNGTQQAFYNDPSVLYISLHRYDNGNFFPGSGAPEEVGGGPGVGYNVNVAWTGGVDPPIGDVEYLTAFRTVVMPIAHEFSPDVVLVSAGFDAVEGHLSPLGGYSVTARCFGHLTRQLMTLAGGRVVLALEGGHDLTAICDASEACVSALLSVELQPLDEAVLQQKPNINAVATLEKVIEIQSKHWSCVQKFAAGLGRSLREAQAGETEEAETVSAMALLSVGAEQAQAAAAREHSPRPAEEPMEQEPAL
A further assay concerns the target HDAC4 (Homo sapiens, UniProt P56524). Particulars: MTS inhibitors; cited from earlier work.

Chain of HDAC4 (P56524 whole entry): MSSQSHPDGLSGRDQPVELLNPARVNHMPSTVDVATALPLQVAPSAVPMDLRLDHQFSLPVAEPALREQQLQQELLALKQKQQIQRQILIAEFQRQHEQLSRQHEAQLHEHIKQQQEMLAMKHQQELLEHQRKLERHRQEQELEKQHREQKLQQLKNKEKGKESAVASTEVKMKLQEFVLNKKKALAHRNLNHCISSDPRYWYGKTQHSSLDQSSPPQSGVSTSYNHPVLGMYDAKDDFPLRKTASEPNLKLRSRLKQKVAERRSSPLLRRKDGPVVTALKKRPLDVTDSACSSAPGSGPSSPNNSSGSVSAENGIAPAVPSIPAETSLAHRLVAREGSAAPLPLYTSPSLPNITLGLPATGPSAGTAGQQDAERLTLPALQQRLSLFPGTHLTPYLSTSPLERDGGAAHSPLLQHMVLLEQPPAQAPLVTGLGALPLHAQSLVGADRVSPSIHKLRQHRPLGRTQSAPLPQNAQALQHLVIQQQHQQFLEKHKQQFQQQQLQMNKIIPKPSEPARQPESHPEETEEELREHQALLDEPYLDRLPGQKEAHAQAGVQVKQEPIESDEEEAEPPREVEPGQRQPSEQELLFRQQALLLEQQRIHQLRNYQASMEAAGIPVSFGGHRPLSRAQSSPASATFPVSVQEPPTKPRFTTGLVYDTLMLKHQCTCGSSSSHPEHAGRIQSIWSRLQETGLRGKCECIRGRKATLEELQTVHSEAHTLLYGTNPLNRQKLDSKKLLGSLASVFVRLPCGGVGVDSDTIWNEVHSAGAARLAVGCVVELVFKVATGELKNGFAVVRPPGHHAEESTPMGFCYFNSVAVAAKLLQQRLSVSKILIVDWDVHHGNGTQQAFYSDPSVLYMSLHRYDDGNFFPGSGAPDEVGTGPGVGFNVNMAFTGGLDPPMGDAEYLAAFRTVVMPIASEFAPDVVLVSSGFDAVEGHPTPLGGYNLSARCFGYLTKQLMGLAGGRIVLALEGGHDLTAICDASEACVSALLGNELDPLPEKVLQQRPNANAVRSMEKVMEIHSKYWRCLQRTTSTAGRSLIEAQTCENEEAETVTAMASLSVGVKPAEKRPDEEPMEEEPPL
Chain of HDAC9 (Q9UKV0 whole entry): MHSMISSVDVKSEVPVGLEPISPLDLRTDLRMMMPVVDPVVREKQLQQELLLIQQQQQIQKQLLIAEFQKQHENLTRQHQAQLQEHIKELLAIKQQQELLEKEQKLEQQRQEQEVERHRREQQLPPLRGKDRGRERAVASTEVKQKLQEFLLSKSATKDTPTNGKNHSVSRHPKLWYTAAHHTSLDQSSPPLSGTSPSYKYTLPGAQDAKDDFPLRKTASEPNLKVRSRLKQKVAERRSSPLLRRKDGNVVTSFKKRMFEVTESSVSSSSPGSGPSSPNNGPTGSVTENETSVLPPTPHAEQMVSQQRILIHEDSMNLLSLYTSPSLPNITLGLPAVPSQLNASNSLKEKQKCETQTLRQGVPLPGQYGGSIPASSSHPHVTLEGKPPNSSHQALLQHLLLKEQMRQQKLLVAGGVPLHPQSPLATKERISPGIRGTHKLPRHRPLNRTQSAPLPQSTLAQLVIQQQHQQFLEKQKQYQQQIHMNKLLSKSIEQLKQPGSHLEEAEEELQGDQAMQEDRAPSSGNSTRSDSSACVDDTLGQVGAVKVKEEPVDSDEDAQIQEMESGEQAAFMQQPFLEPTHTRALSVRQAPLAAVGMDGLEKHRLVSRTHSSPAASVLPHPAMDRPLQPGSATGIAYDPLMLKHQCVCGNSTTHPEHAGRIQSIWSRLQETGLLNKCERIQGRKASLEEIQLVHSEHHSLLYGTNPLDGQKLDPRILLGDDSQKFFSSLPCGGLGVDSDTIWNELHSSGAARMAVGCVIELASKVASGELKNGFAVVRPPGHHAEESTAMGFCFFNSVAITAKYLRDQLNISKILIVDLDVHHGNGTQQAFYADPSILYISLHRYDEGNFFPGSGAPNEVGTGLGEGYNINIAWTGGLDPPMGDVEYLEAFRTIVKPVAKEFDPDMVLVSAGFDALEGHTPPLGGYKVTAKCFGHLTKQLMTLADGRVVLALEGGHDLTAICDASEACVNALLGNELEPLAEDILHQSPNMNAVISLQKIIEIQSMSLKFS

Usually IC50 stands for the point on the concentration scale where inhibition reaches its midpoint. Regarding `CC(/C=C/C(=O)NO)=C\[C@H](C)C(=O)c1ccc(N(C)C)cc1` (stereo in doubt) [TSA, 7-(4-(Dimethylamino)phenyl)-N-hydroxy-4,6-dimethyl-7-oxo-2,4-heptadienamide], in the assay with HDAC isoforms (range of pIC50 over the profiled HDAC isoforms), the “Bioactivity range (ΔpIC50) DpIC50” value is 2.34. In addition, in the assay on HDLP, the “Experimental pIC50” value is 6.40 and the IC50 was 400 nM.
`C/C=C/N(C)c1nc([C@H](C)c2c(F)cccc2F)c(C)c(=O)[nH]1` [(R)-MC1501]: the “Experimental activity (pKi), Exp” value on HIV-RT Y188L is listed as 6.71; on HIV-RT L100I, 7.02; at HIV-RT K103N, 7.02; on HIV-RT V106A it was 8.52; on HIV-RT Y181I, 6.35; at HIV-RT WT it was 8.70.
With `Cc1c(N)nc(Nc2ccc(C#N)cc2)nc1[C@H](C)c1c(F)cccc1F` [(R)-MC2082], the “Experimental activity (pKi), Exp” value on HIV-RT Y188L is reported as 8.10; on HIV-RT L100I, 8.10; on HIV-RT K103N, 8.52; at HIV-RT V106A it was 9.52; at HIV-RT Y181I, 6.12; at HIV-RT WT, 6.81.
Turning to `C/C=C/N(C)c1nc([C@@H](C)c2c(F)cccc2F)c(C)c(=O)[nH]1` [(S)-MC1501], the “Experimental activity (pKi), Exp” value is given as 4.40 at HIV-RT Y188L; 4.40 at HIV-RT L100I; 6.01 at HIV-RT K103N; 6.45 on HIV-RT V106A; 4.40 on HIV-RT Y181I; 6.93 at HIV-RT WT.
On to `Cc1c(N)nc(Nc2ccc(C#N)cc2)nc1[C@@H](C)c1c(F)cccc1F` [(S)-MC2082], for which the “Experimental activity (pKi), Exp” value is given as 4.40 at HIV-RT Y188L; 6.74 on HIV-RT L100I; 7.19 on HIV-RT K103N; 6.62 at HIV-RT V106A; 6.29 at HIV-RT Y181I; 4.52 at HIV-RT WT.
For the molecule `O=C(O)CCCc1ccccc1` [MCL-3], the “average pIC50 value, Exp.” value in the assay on HDAC isoforms (average over HDAC isoforms, MTS) was 3.40. In addition, the “Exp. pIC50” value at HDAC9, at HDAC7, on HDAC5 and on HDAC4 was 2.70 each time.
